# Patent publication US20140371244A1, “METHOD FOR TREATING PROSTATE CANCER BY USE OF PHARMACEUTICAL COMPOSITION CONTAINING A3 ADENOSINE RECEPTOR AGONIST” (priority 2009, published 2014)
# What was measured:
# RAW 264.7 cells = experiment: MTT assay, cytotoxicity in RAW 264.7 cells; format: cell-based, mouse; conditions: 20 μM (highest concentration)
# Procedure: In order to example whether the iNOS production inhibitory effect is attributable to the toxicity of the sample itself (inventive composition, thio-Cl-IB-MECA), an MTT (3-(4,5-dimethylthiazol-2-yl)-2,5-diphenyltetrazolium bromide) assay was performed.
# IL-1β = IL-1β gene and protein expression in LPS-stimulated RAW 264.7 cells; format: cell-based, mouse; conditions: 5, 10, 20 μM, LPS 1 μg/ml
# Procedure: IL-1β is one of major factors involved in inflammation and functions to induce the expression of several genes related to inflammation and tissue injury. Thus, the effects of the inventive composition on the expressions of mRNA gene and protein of IL-1β were tested. Specifically, RAW 264.7 cells were pretreated with each of 20, 10 and 5 μM of the inventive composition (thio-Cl-IB-MECA) and treated with LPS (1 μg/ml) to induce inflammatory reactions, followed by culture for 4 hours. The RNA fraction was collected and cultured for 8 hours, and then the protein was collected and subjected to RT-PCR and Western blot.
# LNCaP = experiment: Morphological change of LNCaP cells; format: cell-based, human; conditions: 40, 20 and 10 μM, 48 hours
# Procedure: Each of LNCaP and PC-3 prostate cancer cell lines was treated with 40, 20 and 10 μM of thio-Cl-IB-MECA and cultured for 48 hours, and then the morphological change of the cells was observed.
# Specifically, each type of the prostate cancer cells was diluted with 10% FBS (Fetal Bovine Serum)-containing medium to a density of 1.0×10^6 cells per 100 mm culture dish and cultured under the conditions of 37° C. and 5% CO2, followed by washing twice with PBS (Phosphate Buffered Saline). Thio-Cl-IB-MECA was diluted in 10% FBS-containing medium at required concentration, and then 10 ml of the culture medium prepared in the 100 mm culture dish was added thereto and incubated for a given time. The morphology of the cells was observed as a function of treatment time and concentration (FIGS. 11a and 11b).
# LNCaP cells = experiment: Cell cycle analysis (FACS) in LNCaP cells; format: cell-based, human; conditions: 40, 20 and 10 μM, 48 hours
# Procedure: (§1) Cells were treated with 40, 20 and 10 μM of thio-Cl-IB-MECA and cultured for 48 hours, and the cell cycle of the cells was analyzed by flow cytometer analysis (FACS). Specifically, cells were diluted with 10% FBS-containing medium to a density of 1.0×10^6 cells per 100 mm culture dish and cultured under the conditions of 37° C. and 5% CO2 for 24 hours, followed by washing twice with PBS. Thio-Cl-IB-MECA was diluted in 10% FBS-containing medium at required concentration, and then 10 ml of the culture medium prepared in the 100 mm culture dish was added thereto and cultured for a given time. The non-adherent cells and adherent cells in the cell medium were collected and washed twice with PBS, after which 500 μL of 100% cold methanol was added thereto and the cells were fixed at 4° C. The cells were washed twice with PBS and allowed to stand in RNase A-containing solution for 30 minutes, after which the cells were stained with propidium iodide (PI) buffer for 5 minutes. After removal of the PI buffer, the cells were transferred into a polystyrene round-bottom tube, and cell cycle analysis was performed by FACScalibur® flow cytometry.
# PC-3 cells = experiment: Cell cycle analysis (FACS) in PC-3 cells; format: cell-based, human; conditions: 40, 20 and 10 μM, 48 hours
# Procedure: as §1
# HCT 116 cells = experiment: RT-PCR of cell cycle regulation-related genes in HCT 116 cells; format: cell-based, human; conditions: 40 μM
# Procedure: A test was carried out to examine whether cell cycle regulation-related genes involved in the G1 phase are expressed.
# Specifically, HCT 116 cells were diluted with 10% FBS-containing medium to a density of 1×10^6 cells per 100 mm culture dish and cultured under the conditions of 37° C. and 5% CO2 for 24 hours, followed by washing twice with PBS. Thio-Cl-IB-MECA was diluted in 10% FBS-containing medium to a concentration of 40 μM, and then 10 ml of the culture medium prepared in the 100 mm culture dish was added thereto and cultured for a given time. The non-adherent cells and adherent cells in the cell medium were collected and washed twice with PBS. Then, the cells were lysed with TRI reagent (TRIzol), after which CHCl3 was added thereto and RNA was extracted from the cells and precipitated using isopropyl alcohol. The RNA precipitate was washed with 70% ethanol and dried in air, after which it was suspended in nuclease-free water. The suspension was heated at 55° C. for 10 minutes and then at 70° C. for 5 minutes, so that the RNA was present as a single chain. The total RNA was quantified with NanoDrop, after which it was diluted to a concentration of 1 μg/μl and made into cDNA using avian myeloblastosis virus (AMV) reverse transcriptase and oligo (dT)15 primers. […]
structure (smiles),measurement,setting,value
"CNC(=O)[C@H]1S[C@@H](n2cnc3c(NCc4cccc(I)c4)nc(Cl)nc32)[C@H](O)[C@@H]1O [thio-Cl-IB-MECA, 2-chloro-N^6-(3-iodobenzyl)-4′-thioadenosine-5′-N-methyluronamide]",viability of RAW 264.7 cells (MTT),RAW 264.7 cells,80%
same,expression of IL-1β gene,IL-1β; RT-PCR,concentration-dependently inhibited
same,expression of IL-1β protein,IL-1β; Western blot,concentration-dependently inhibited
same,"number of the cells, LNCaP",LNCaP,decreased in a concentration-dependent manner
same,"G1 phase of cell cycle, LNCaP",LNCaP cells,an increase in the G1 phase appeared
same,"G1 phase of cell cycle, PC-3",PC-3 cells,an increase in the G1 phase appeared
same,gene expression of cyclin D1 and c-Myc,HCT 116 cells,inhibited the expression
same,gene expression of p21 and p53,HCT 116 cells,increased the expression
